The values below come from US10660334B2, “Fused bicyclic heterocycle derivatives as pesticides” (Bayer CropScience Aktiengesellschaft, priority 2016, dated 2020).

In one data set the test system is Phaedon cochleariae. Put plainly: Phaedon cochleariae spray test. Type of data set: in vivo. The settings on record: spray on Chinese cabbage leaf discs, after 7 days. The method, then:
Phaedon cochleariae—Spray Test
Solvent: 78.0 parts by weight of acetone • • 1.5 parts by weight of dimethylformamide
Emulsifier: alkylaryl polyglycol ether
To produce a suitable active ingredient formulation, 1 part by weight of active ingredient is dissolved with the specified parts by weight of solvent and made up to the desired concentration with water containing an emulsifier concentration of 1000 ppm. To produce further test concentrations, the formulation is diluted with emulsifier-containing water.
Discs of Chinese cabbage leaves (Brassica pekinensis) are sprayed with an active ingredient formulation of the desired concentration and, after drying, populated with larvae of the mustard beetle (Phaedon cochleariae).
After 7 days, the efficacy in % is determined. 100% means that all the beetle larvae have been killed; 0% means that no beetle larvae have been killed.

Data set [1] concerns Myzus persicae. Put plainly: Myzus persicae spray test. Type of data set: in vivo. The settings on record: foliar, 120 h, spray on Chinese cabbage leaf discs, after 5 days, read-out: efficacy (aphids killed); for pest or weed control at 20 g/ha: application rate 20 g/ha; for pest or weed control at 100 g/ha: application rate 100 g/ha. The method, then: Myzus persicae—Spray Test Solvent: 78 parts by weight of acetone • • 1.5 parts by weight of dimethylformamide Emulsifier: alkylaryl polyglycol ether To produce a suitable active ingredient formulation, 1 part by weight of active ingredient is dissolved with the specified parts by weight of solvent and made up to the desired concentration with water containing an emulsifier concentration of 1000 ppm. To produce further test concentrations, the formulation is diluted with emulsifier-containing water. Discs of Chinese cabbage leaves (Brassica pekinensis) infested by all stages of the green peach aphid (Myzus persicae) are sprayed with an active ingredient formulation of the desired concentration. After 5 days, the efficacy in % is determined. 100% means that all the aphids have been killed; 0% means that no aphids have been killed.

A short description of data set [2]: log P by HPLC on reversed-phase column (EEC Directive 79/831 Annex V.A8), acidic range. It is filed as physicochemical. The following applies: reversed-phase C18 HPLC column; HPLC reversed-phase C18, 55° C., pH 2.7, 0.1% aqueous formic acid and acetonitrile; read-out: log P (HCOOH). The method, then: The log P values are measured according to EEC Directive 79/831 Annex V.A8 by HPLC (high-performance liquid chromatography) on a reversed-phase column (C18). Temperature: 55° C. The LC-MS determination in the acidic range is effected at pH 2.7 with 0.1% aqueous formic acid and acetonitrile (containing 0.1% formic acid) as eluents; linear gradient from 10% acetonitrile to 95% acetonitrile. Called log P (HCOOH) in the table.

The subject of data set [3] is Myzus persicae. Kind of data set: Myzus persicae oral test. The following applies: 120 h, application rate 4 ppm, after 5 days, read-out: efficacy (aphids killed). Type of data set: in vivo. The procedure: Myzus persicae—Oral Test Solvent: 100 parts by weight of acetone To produce a suitable active ingredient formulation, 1 part by weight of active ingredient is dissolved with the stated parts by weight of solvent and made up to the desired concentration with water. 50 μl of the active ingredient preparation are transferred into microtitre plates and made up to a final volume of 200 μl with 150 μl of IPL41 insect medium (33%+15% sugar). Subsequently, the plates are sealed with parafilm, which a mixed population of green peach aphids (Myzus persicae) within a second microtitre plate is able to puncture and imbibe the solution. After 5 days, the efficacy in % is determined. 100% means that all the aphids have been killed; 0% means that no aphids have been killed.

For the next data set, the system named is Musca domestica. Put plainly: Musca domestica test. The settings on record: application rate 100 ppm, adult houseflies, after 2 days. Type of data set: in vivo. The procedure: Musca domestica Test Solvent: dimethyl sulfoxide To produce a suitable active ingredient formulation, 10 mg of active ingredient are mixed with 0.5 ml of dimethyl sulfoxide, and the concentrate is diluted with water to the desired concentration. Vessels containing a sponge treated with sugar solution and the active ingredient formulation of the desired concentration are populated with 10 adult houseflies (Musca domestica). After 2 days, the kill in % is determined. 100% means that all of the flies have been killed; 0% means that none of the flies have been killed.

The next data set relates to Lucilia cuprina. Put plainly: Lucilia cuprina test. It is filed as in vivo. The following applies: application rate 100 ppm, L1 larvae, after 2 days. The procedure:
Lucilia cuprina Test Solvent: dimethyl sulfoxide To produce a suitable active ingredient formulation, 10 mg of active ingredient are mixed with 0.5 ml of dimethyl sulfoxide, and the concentrate is diluted with water to the desired concentration. About 20 L1 larvae of the Australian sheep blowfly (Lucilia cuprina) are transferred into a test vessel containing minced horsemeat and the active ingredient formulation of the desired concentration. After 2 days, the kill in % is determined. 100% means that all the larvae have been killed; 0% means that no larvae have been killed.

For the compound `CCS(=O)(=O)c1c(-c2nc3cc(C(F)(F)F)ncc3n2C)nc2n1CCCC2` [Example I-002, 2-(3-Ethylsulfonyl-5,6,7,8-tetrahydroimidazo[1,2-a]pyridin-2-yl)-3-methyl-6-(trifluoromethyl)imidazo[4,5-c]pyridine], in the data set on Phaedon cochleariae (application rate 500 g/ha), the “efficacy (beetle larvae killed)” value is reported as 83%. In the data set on Myzus persicae [1], the pest or weed control at 20 g/ha stood at 90% and the pest or weed control at 100 g/ha turned out to be 90%. In the data set with Myzus persicae [1] (application rate 500 g/ha), the pest or weed control at 500 g/ha was 90%. Also, the chromatographic logP in data set [2] was determined as 1.97.

With `CCS(=O)(=O)c1c(-c2nc3cc(C(F)(F)F)ncc3n2C)nc2n1CCCC2C(F)(F)F` (stereo not drawn) [Example I-004], in the data set on Myzus persicae [3], the pest or weed control at 4 ppm was found to be 100%.

`CCS(=O)(=O)c1c(-c2nc3cc(C(F)(F)F)ncc3n2C)nc2n1CCCC2(O)C(F)(F)F` (stereo not drawn) [Example I-006]: the pest or weed control at 4 ppm in the data set with Myzus persicae [3] worked out at 100%. Consider `Cn1c(-c2nc3n(c2S(C)(=O)=O)CCCC3)nc2cc(C(F)(F)F)cnc21` [Example I-014], for which the “efficacy (kill)” value in the data set on Musca domestica and in the data set on Lucilia cuprina was 100% in each case. Besides, the pest or weed control at 4 ppm with Myzus persicae [3] came to 100%. Moreover, the pest or weed control at 100 g/ha in the data set on Myzus persicae [1] was 90%. With `Cn1c(-c2nc3n(c2S(C)(=O)=O)CCCC3)nc2cc(C(F)(F)F)ccc21` [Example I-016], the pest or weed control at 4 ppm in the data set on Myzus persicae [3] was 100%. For `Cn1c(-c2nc3n(c2S(C)(=O)=O)CCCC3)nc2cc(C(F)(F)F)cnc21` [Example I-018], in the data set with Myzus persicae [1], the pest or weed control at 20 g/ha worked out at 90%. In the case of `CCS(=O)(=O)c1c(-c2nc3cc(C(F)(F)F)nc(C(C)C)c3n2C)nc2n1CCCC2` [Example I-019], the pest or weed control at 4 ppm in the data set on Myzus persicae [3] turned out to be 100%. In the data set on Myzus persicae [1], the pest or weed control at 20 g/ha was 90% and the pest or weed control at 100 g/ha stood at 90%. For `CCS(=O)(=O)c1c(-c2nc3cc(SC(F)(F)F)cnc3n2C)nc2n1CCCC2` [Example I-020], the “efficacy (beetle larvae killed)” value in the data set with Phaedon cochleariae (application rate 100 g/ha) amounted to 100%. Further, in the data set with Myzus persicae [3], the pest or weed control at 4 ppm is 100%. In addition, in the data set on Myzus persicae [1], the pest or weed control at 20 g/ha worked out at 90% and the pest or weed control at 100 g/ha worked out at 90%. Turning to `CCS(=O)(=O)c1c(-c2nc3cc(S(=O)(=O)C(F)(F)F)cnc3n2C)nc2n1CCCC2` [Example I-021], the “efficacy (beetle larvae killed)” value in the data set with Phaedon cochleariae (application rate 100 g/ha) came out at 100%. For the same compound, the pest or weed control at 4 ppm in the data set with Myzus persicae [3] is 100%. Besides, in the data set with Myzus persicae [1], the pest or weed control at 20 g/ha turned out to be 90% and the pest or weed control at 100 g/ha turned out to be 100%.

On to `CCS(=O)(=O)c1c(-c2nc3cc([S+]([O-])C(F)(F)F)cnc3n2C)nc2n1CCCC2` (stereo not drawn) [Example I-022], for which the pest or weed control at 4 ppm with Myzus persicae [3] was found to be 100%. In addition, in the data set with Myzus persicae [1], the pest or weed control at 20 g/ha is 90%. On to `Cn1c(-c2nc3n(c2S(C)(=O)=O)CCCC3)nc2cc(SC(F)(F)F)cnc21` [Example I-023], for which, in the data set on Myzus persicae [3], the pest or weed control at 4 ppm came out at 100%. Moreover, in the data set with Myzus persicae [1], the pest or weed control at 20 g/ha came to 90% and the pest or weed control at 100 g/ha was 90%. For the compound `CCS(=O)(=O)c1c(-c2nc3cc(C(F)(F)F)ncc3n2C)nc2n1CCCC2O` (stereo not drawn) [Example I-024, 3-Ethylsulfonyl-2-[3-methyl-6-(trifluoromethyl)imidazo[4,5-c]pyridin-2-yl]-5,6,7,8-tetrahydro-imidazo[1,2-a]pyridin-8-ol], in the data set with Myzus persicae [3], the pest or weed control at 4 ppm is 100%. The pest or weed control at 100 g/ha in the data set with Myzus persicae [1] is 90%. Besides, the chromatographic logP in data set [2] was determined as 1.6. As to `CCS(=O)(=O)c1c(-c2nc3cc(C(F)(F)F)nc(C(F)F)c3n2C)nc2n1CCCC2` [Example I-025, 4-(Difluoromethyl)-2-[3-(ethylsulfonyl)-5,6,7,8-tetrahydroimidazo[1,2-a]pyridin-2-yl]-3-methyl-6-(trifluoromethyl)-3H-imidazo[4,5-c]pyridine], in the data set with Myzus persicae [3], the pest or weed control at 4 ppm worked out at 100%. Further, the chromatographic logP in data set [2] worked out at 2.8. As for `CCS(=O)(=O)c1c(-c2nc3cc(C(F)(F)F)ncc3n2C)nc2n1CCCC2F` (stereo not drawn) [Example I-026, 2-[3-(Ethylsulfonyl)-8-fluoro-5,6,7,8-tetrahydroimidazo[1,2-a]pyridin-2-yl]-3-methyl-6-(trifluoromethyl)-3H-imidazo[4,5-c]pyridine], in data set [2], the chromatographic logP turned out to be 2.11. The same measure, in the same setting: in the case of `CCS(=O)(=O)c1c(-c2nc3cc(C(F)(F)F)ncc3n2C)nc2n1CCC(C)(C)C2` [Example I-031, 2-(3-Ethysulfonyl-7,7-dimethyl-6,8-dihydro-5H-imidazo[1,2-a]pyridin-2-yl)-3-methyl-6-(trifluoromethyl)imidazo[4,5-c]pyridine] it was 2.51; in that of `CCS(=O)(=O)c1c(-c2nc3cc(C(F)(F)C(F)(F)F)ncc3n2C)nc2n1CCC(C)C2` (stereo not drawn) [Example I-034, 2-(3-Ethylsulfonyl-7-methyl-5,6,7,8-tetrahydroimidazo[1,2-a]pyridin-2-yl)-3-methyl-6-(1,1,2,2,2-pentafluoroethyl)imidazo[4,5-c]pyridine], 2.8.

With `CCS(=O)(=O)c1c(-c2nc3cc(C(F)(F)F)nc(C)c3n2C)nc2n1CCCC2` [Example I-039, 2-(3-Ethylsulfonyl-5,6,7,8-tetrahydroimidazo[1,2-a]pyridin-2-yl)-3,4-dimethyl-6-(trifluoromethyl)imidazo[4,5-c]pyridine], in data set [2], the chromatographic logP turned out to be 2.1. Regarding `CCc1nc(C(F)(F)F)cc2nc(-c3nc4n(c3S(=O)(=O)CC)CCCC4)n(C)c12` [Example I-040, 4-Ethyl-2-(3-ethylsulfonyl-5,6,7,8-tetrahydroimidazo[1,2-a]pyridin-2-yl)-3-methyl-6-(trifluoromethyl)imidazo[4,5-c]pyridine], the chromatographic logP in data set [2] is 2.51.

For the compound `CCS(=O)(=O)c1c(-c2nc3cc(C(F)(F)F)ncc3n2C)nc2n1CCCC2C` (stereo not drawn) [Example I-043, 2-(3-Ethylsulfonyl-8-methyl-5,6,7,8-tetrahydroimidazo[1,2-a]pyridin-2-yl)-3-methyl-6-(trifluoromethyl)imidazo[4,5-c]pyridine], in data set [2], the chromatographic logP was found to be 2.31.

Regarding `Cn1c(-c2nc3n(c2Cl)CCCC3)nc2cc(C(F)(F)F)ncc21` [Example V-001, 2-(3-Chloro-5,6,7,8-tetrahydroimidazo[1,2-a]pyridin-2-yl)-3-methyl-6-(trifluoromethyl)imidazo[4,5-c]pyridine], in data set [2], the chromatographic logP turned out to be 2.26. For `CC1CCn2c(nc(-c3nc4cc(C(F)(F)C(F)(F)F)ncc4n3C)c2Br)C1` (stereo not drawn) [Example V-002, 2-(3-Bromo-7-methyl-5,6,7,8-tetrahydroimidazo[1,2-a]pyridin-2-yl)-3-methyl-6-(1,1,2,2,2-pentafluoroethyl)imidazo[4,5-c]pyridine], the chromatographic logP in data set [2] is 3.39. Same read-out and setting: next, `Cn1c(-c2nc3n(c2Br)CCC(C)(C)C3)nc2cc(C(F)(F)F)ncc21` [Example V-003, 2-(3-Bromo-7,7-dimethyl-6,8-dihydro-5H-imidazo[1,2-a]pyridin-2-yl)-3-methyl-6-(trifluoromethyl)imidazo[4,5-c]pyridine]: 3.03. With `CC1CCn2c(nc(C(=O)O)c2Br)C1` (stereo not drawn) [III-001, 3-Bromo-7-methyl-5,6,7,8-tetrahydroimidazo[1,2-a]pyridine-2-carboxylic acid], the chromatographic logP in data set [2] is 0.27. Same read-out and setting: in the case of `CC1(C)CCn2c(nc(C(=O)O)c2Br)C1` [III-002, 3-Bromo-7,7-dimethyl-6,8-dihydro-5H-imidazo[1,2-a]pyridine-2-carboxylic acid] it was 0.67.
